Reference: patent US5428048A, “Aryl-N-hydroxyureas as inhibitors of 5-lipoxygenase and anto-arteriosclerotic agents” (American Home Products Corporation, priority 1993, dated 1995)
Blank lines part the entries; values can stand above or below the molecule they belong to.

Key:
5-Lipoxygenase = biological target: T1, 5-Lipoxygenase (Homo sapiens, UniProt P09917); experiment: Inhibition of 5-Lipoxygenase in Human Whole Blood (ionophore A23187-stimulated LTB4); format: cell-based
T1 construct: endogenous in cells; host or cells: whole blood of male human donors (results per 10^6 neutrophils)
T1 sequence (P09917 1-674): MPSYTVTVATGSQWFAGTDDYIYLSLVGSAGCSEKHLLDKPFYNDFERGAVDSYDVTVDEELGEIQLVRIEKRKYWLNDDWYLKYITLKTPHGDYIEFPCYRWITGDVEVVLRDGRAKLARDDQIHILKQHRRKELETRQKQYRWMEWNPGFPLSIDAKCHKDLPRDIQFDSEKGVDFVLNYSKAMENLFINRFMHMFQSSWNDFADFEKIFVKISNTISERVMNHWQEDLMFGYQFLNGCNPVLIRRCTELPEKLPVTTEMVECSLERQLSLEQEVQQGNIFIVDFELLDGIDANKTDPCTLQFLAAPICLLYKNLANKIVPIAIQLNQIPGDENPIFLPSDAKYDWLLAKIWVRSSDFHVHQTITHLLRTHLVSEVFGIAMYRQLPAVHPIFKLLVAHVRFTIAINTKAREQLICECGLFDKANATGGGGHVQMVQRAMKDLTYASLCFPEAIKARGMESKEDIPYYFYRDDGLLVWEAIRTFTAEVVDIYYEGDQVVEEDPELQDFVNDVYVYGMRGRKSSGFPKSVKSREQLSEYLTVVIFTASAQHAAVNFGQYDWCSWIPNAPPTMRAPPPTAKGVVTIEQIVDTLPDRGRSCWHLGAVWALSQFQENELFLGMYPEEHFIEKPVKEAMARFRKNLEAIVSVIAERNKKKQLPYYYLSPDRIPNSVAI
Experimental: 1. Inhibition of 5-Lipoxygenase in Human Whole Blood
Blood is obtained in 50-100 ml quantities from male donors. White blood cell counts and differentials are made. Two ml of blood are placed in a 15 ml polypropylene test tube. Test compounds are solubilized in dimethylsulfoxide and diluted in 1:10 in 10% bovine serum albumin in phosphate buffered saline, pH 7.4 resulting in a final dimethylsulfoxide concentration of 0.1% in the blood. Then, solutions of test compounds are added to the blood in a shaking water bath at 37° C. for 10 minutes prior to the addition of 30 μM calcium ionophore (A23187, Sigma). After ionophore administration, whole blood samples are mixed and incubated for 20 minutes at 37° C. in a shaking water bath. Incubation is terminated by placing samples in an ice bath and immediately adding ethylene glycol-bis-(β-aminoethyl ether)-N, N,N',N'-tetraacetic acid (10 mM). Samples are mixed and centrifuged at 1200×g for 15 minutes at […]. Preparation of samples for evaluation by RIA or ELISA is carded out by the following protocol. Plasma is removed from sample tubes, placed in 15 ml polypropylene test tubes containing 8 ml methanol, and then vortexed to precipitate protein. Samples are stored at -70° C. overnight. The next day, samples are centrifuged at 200×g for 15 minutes at 4° C. to pellet the precipitate. Samples are dried in a Savant SpeedVac Concentrator, Model SVC 200H, reconstituted to original volume with ice cold RIA or ELISA buffer, and stored at -70° C. until assayed. The assay for eicosanoids (LTB4, TxB2, and PGE2) is performed as described by the manufacturer of the [^3 H]-RIA kit or ELISA kit (LTB4 -Amersham, TxB2 and PGE2 - Caymen Chemical).
The total eicosanoid level in 2 ml of blood is calculated and reported as ng/10^6 neutrophils. Significance is determined by a one-way analysis of variance with least significant difference (LSD) comparisons to control (p≤0.05) and IC50 's (μM) are determined by regression analysis (Finney, 1978). Drug effects are expressed as percent change from control values.

LTB4 Synthesis = experiment: Reverse Passive Arthus Reaction (pleurisy, LTB4 in pleural exudate); format: in vivo, male Lewis rats; details: for % Inhibition LTB4 Synthesis: 25 mg/kg p.o.; for % Inhibition of LTB4 / ED50: standard drugs; for ED50: Rattus norvegicus, po, ED50 printed in parentheses
Experimental: 3. Reverse Passive Arthus Reaction
A reverse passive Arthus reaction is induced in the pleural cavity of male Lewis rats (150°-200 g; fasted overnight prior to use) by the intravenous administration of bovine serum albumin (BSA; 4 mg/0.2 ml) followed 30 minutes later by the injection of rabbit anti-BSA (1 mg/0.2 ml; lyophilized IgG fraction; Organon Teknika, West Chester, Pa.) into the right pleural space under halothane anesthesia. Drugs or vehicle (0.5% Tween-80) control are administered orally in a volume of 1 ml/100 g body weight at 1 hour prior to the anti-BSA. Animals are sacrificed at either the time of peak eicosanoid production (i.e. 5 minutes after anti-BSA for immunoreactive TxB2, 10 minutes for immunoreactive LTB4, 20 minutes for immunoreactive LTC4) or at the time of peak neutrophil infiltration (4 hours after anti-BSA) by CO2 inhalation. The pleural cavity is then exposed, the fluid exudate removed by gentle vacuum aspiration and the volume of exudate is recorded. For the determination of cellular infiltration, the pleural cavity is rinsed with 3 ml of 0.1% EDTA in sterile saline, and the recovered wash is pooled with the exudate. Cell number is determined on a model ZBI Coulter counter. For determination of eicosanoid production, undiluted pleural exudate is microfuged and the supernatant is extracted with ethanol (8-10 times volume). Extracts are either stored at -20° C., or are evaporated to dryness under a stream of N2 and reconstituted in radioimmunoassay (RIA) buffer.
Eicosanoids are quantitated by RIA according to the procedure specified by the RIA kit manufacturer (Advanced Magnetics, Cambridge, MA). Briefly, 100 μl of ^3 H-labeled eicosanoid and 100 μl of specific antibody ,are sequentially added to 100 μl of extracted pleural exudate in BGG-phosphate buffer which contains 0.01M phosphate, 0.1% bovine gamma globulin and 0.1% sodium azide at pH 7.0. Antibody-bound eicosanoid is separated from unbound eicosanoid by the addition of 750 μl of dextran (0.4%)-coated charcoal (Norit A) containing 0.1% sodium azide. The mixture is centrifuged at 2000 RPM at 5° C. for 15 minutes to pellet the charcoal and adsorbed unbound eicosanoid. Antibody-bound labeled eicosanoid is quantitated by counting in a liquid scintillation counter, and is correlated to concentration by a standard curve.

Lipoxygenase = experiment: Ex-Vivo Measurement of Lipoxygenase Inhibition in Orally Dosed Rats (LTB4 in A23187-stimulated blood); set-up: species or system Male Sprague Dawley rats; details: ex vivo rat, p.o., pretreatment 3 hr
Experimental: 2. […] After an interval of 3 or 6 hours, the rats were anesthetized with metofane (n =4/group) and blood collected in heparinized tubes. White blood cell counts and differentials were made. One ml of blood from each animal was placed in a 5 ml plastic tube in a shaker bath at 37° C. A23187 at a final concentration of 10 μM was added to the blood and the blood vortexed and incubated for 15 min at 37° C. with gentle shaking. Incubation was terminated by vortexing sample and centrifuging immediately at 1200 xG for 15 min at 4° C. The plasma was transferred to 15 ml plastic tubes each containing 8 ml of methanol to precipitate protein followed by vortexing. The samples were stored at -70° C. overnight and the next day the samples were centrifuged at 800 xG for 15 min to pellet the precipitate. The samples were dried in a Savant SpeedVac Concentrator Model SVC 200H and reconstituted to the original volume with cold RIA or ELISA buffer. The reconstituted samples were stored at -70° C. until assayed. The assay for LTB4 was perforated according to the directions of the [^3 H]RIA kit or ELISA kit (Seragen). The total metabolite level in 1 ml of blood is calculated and reported as ng/10^6 neutrophils. Significance is determined by a one-way analysis of variance with LSD comparisons to control (p<0.05).

inhibition at 1 µM (5-Lipoxygenase): 71%
SMILES: Cc1oc(-c2ccccc2)nc1CCOc1ccc(CN(O)C(N)=O)cc1F [Example 12, 1-[3-Fluoro-4-[2-(5-methyl-2-phenyl-oxazol-4-yl)-ethoxy]-benzyl]-1-hydroxy-urea]
% Inhibition LTB4 Synthesis (LTB4 Synthesis): 58%
% Inhibition of LTB4 (Lipoxygenase; dose 10 (mg/kg)): 52%

inhibition at 1 µM (5-Lipoxygenase): 39%
SMILES: CC(=O)N(O)Cc1ccc(OCCN(C)c2nc3ccccc3o2)cc1 [Example 23, N-[4-[2-(Benzoxazol-2-yl-methyl-amino)-ethoxy]-benzyl]-N-hydroxy-acetamide]
% Inhibition of LTB4 (Lipoxygenase; dose 25 (mg/kg)): 78%

inhibition at 10 µM (5-Lipoxygenase): 77%
SMILES: COC(=O)N(O)Cc1ccc(OCCN(C)c2nc3ccccc3o2)cc1 [Example 24]

inhibition at 1 µM (5-Lipoxygenase): 38%
SMILES: Cc1oc(-c2ccc(C(F)(F)F)cc2)nc1CCOc1c(Cl)cc(CN(O)C(N)=O)cc1Cl [Example 15, 1-[3,5-Dichloro-4-[2-[5-methyl-2-(4-trifluoromethyl-phenyl)-oxazol-4-yl]ethoxy]-benzyl]-1-hydroxy-urea]

inhibition at 1 µM (5-Lipoxygenase): 40%
SMILES: Cc1ccc(-c2nc(CCOc3ccc(CN(O)C(N)=O)cc3)c(C)o2)cc1 [Example 11, 1-Hydroxy-1-[4-[2-(5-methyl-2-(p-tolyl)-oxazol-4-yl]-ethoxy]-benzyl]-urea]

inhibition at 10 µM (5-Lipoxygenase): 60%
SMILES: CN(CCOc1ccc(CN(O)C(N)=O)cc1)c1nc2ccccc2o1 [Example 22, 1-[4-[2-(-Benzoxazol-2-yl-methyl-amino)-ethoxy]-benzyl]-1-hydroxy-urea]

inhibition at 10 µM (5-Lipoxygenase): 93%
SMILES: NC(=O)N(O)Cc1ccc(OCCc2csc(-c3ccccc3)n2)cc1 [Example 17, 1-Hydroxy-1-[4-[2-(2-phenyl-thiazol-4-yl)-ethoxy]-benzyl]-urea]

inhibition at 1 µM (5-Lipoxygenase): 54%
SMILES: Cc1oc(-c2ccccc2F)nc1CCOc1ccc(CN(O)C(N)=O)cc1 [Example 6, 1-[4-[2-[2-(2-Fluoro-phenyl)-5-methyl-oxazol-4-yl]-ethoxy]-benzyl]-1-hydroxy-urea]
% Inhibition LTB4 Synthesis (LTB4 Synthesis): 48%
% Inhibition of LTB4 (Lipoxygenase; dose 10 (mg/kg)): 71%

inhibition at 1 µM (5-Lipoxygenase): 36%
SMILES: Cc1oc(-c2ccc(C(F)(F)F)cc2)nc1CCOc1ccc(CN(O)C(N)=O)cc1F [Example 14]

inhibition at 1 µM (5-Lipoxygenase): 30%
SMILES: NC(=O)N(O)Cc1cccc(OCCc2csc(-c3ccc(C(F)(F)F)cc3)n2)c1 [Example 20, 1-Hydroxy-1-[3-[2-[2-(4-trifluoromethyl-phenyl)-thiazol-4-yl]-ethoxy]-benzyl]-urea]

inhibition at 1 µM (5-Lipoxygenase): 50%
SMILES: Cc1oc(-c2ccc(SC(F)(F)F)cc2)nc1CCOc1ccc(CN(O)C(N)=O)cc1 [Example 16, 1-Hydroxy-1-[4-[2-[5-methyl-2-(4-trifluoromethylsulfanyl-phenyl)-oxazol-4yl]-ethoxy]-benzyl]-urea]

inhibition at 1 µM (5-Lipoxygenase): 51%
SMILES: Cc1oc(-c2ccccc2)nc1CCOc1cccc(CN(O)C(N)=O)c1 [Example 2, 1-Hydroxy-1-[3-[2-(5-methyl-2-phenyl-oxazol-4-yl)-ethoxy]-benzyl]-urea]
% Inhibition LTB4 Synthesis (LTB4 Synthesis): 53%
% Inhibition of LTB4 (Lipoxygenase; dose 25 (mg/kg)): 21%

inhibition at 1 µM (5-Lipoxygenase): 34%
SMILES: Cc1oc(-c2ccccc2)nc1CCOc1cccc(C(C)N(O)C(N)=O)c1 (centres unmarked) [Example 5, 1-Hydroxy-1-[1-[3-[2-(5-methyl-2-phenyl-oxazol-4-yl)-ethoxy]-phenyl]ethyl]-urea]

The next lines start with the molecule.

SMILES: NC(=S)N(O)Cc1ccc(OCCc2csc(-c3ccccc3)n2)cc1 [Example 18]
inhibition at 10 µM (5-Lipoxygenase): 94%

SMILES: COc1ccc2c(c1)c(CC(=O)O)c(C)n2C(=O)c1ccc(Cl)cc1 [Indomethacin, reference compound]
% Inhibition of LTB4 (LTB4 Synthesis; 4 mg/kg p.o.): 12%

SMILES: NC1=NN(c2cccc(C(F)(F)F)c2)CC1 [BW755C, reference compound]
ED50 (LTB4 Synthesis): 23 mg/kg

SMILES: O=C(O)Cc1ccccc1Nc1c(Cl)cccc1Cl [Diclofenac, reference compound]
% Inhibition of LTB4 (LTB4 Synthesis; 10 mg/kg p.o.): 0%

SMILES: O=C1CCN(c2ccccc2)N1 [Phenidone, reference compound]
ED50 (LTB4 Synthesis): 10 mg/kg

SMILES: CC(C(=O)O)c1cccc(C(=O)c2ccccc2)c1 (centres unmarked) [Ketoprofen, reference compound]
% Inhibition of LTB4 (LTB4 Synthesis; 10 mg/kg p.o.): 35%

SMILES: Cc1oc(-c2cccc(F)c2)nc1CCOc1ccc(CN(O)C(N)=O)cc1 [Example 7]
inhibition at 1 µM (5-Lipoxygenase): 63%
% Inhibition LTB4 Synthesis (LTB4 Synthesis): 38%
% Inhibition of LTB4 (Lipoxygenase; dose 10 (mg/kg)): 79%

SMILES: COc1ccc2cc([C@H](C)C(=O)O)ccc2c1 [Naproxen, reference compound]
% Inhibition of LTB4 (LTB4 Synthesis; 4 mg/kg p.o.): 0%

SMILES: Cc1oc(-c2ccc(F)cc2)nc1CCOc1ccc(CN(O)C(N)=O)cc1 [Example 8, 1-[4-[2-[2-(4-Fluoro-phenyl)-5-methyl-oxazol-4-yl)-ethoxy]-benzyl]-1-hydroxy-urea]
inhibition at 1 µM (5-Lipoxygenase): 70%
% Inhibition of LTB4 (Lipoxygenase; dose 10 (mg/kg)): 66%

SMILES: COc1ccc(-c2nc(CCOc3ccc(CN(O)C(N)=O)cc3)c(C)o2)cc1 [Example 3, 1-Hydroxy-1-[4-[2-[2-(4-methoxy-phenyl)-5-methyl-oxazol-4-yl]-ethoxy]benzyl]-urea]
inhibition at 1 µM (5-Lipoxygenase): 57%
% Inhibition of LTB4 (Lipoxygenase; dose 25 (mg/kg)): 32%

SMILES: Cc1cc(OCCc2nc(-c3ccccc3)oc2C)cc(C)c1CN(O)C(N)=O [Example 9, 1-[2,6-Dimethyl-4-[2-(5-methyl-2-phenyl-oxazol-4-yl)-ethoxy]-benzyl]-1-hydroxy-urea]
inhibition at 10 µM (5-Lipoxygenase): 42%
